Our source for the KD values is PMC5113208 (2016).

The test concerns RNA Spinach (RNA, aptamer) GGACGCGACCGAAAUGGUGAAGGACGGGUCCAGUGCGAAACACGCACUGUUGAGUAGAGUGUGAGCUCCGUAACUGGUCGCGUC
Nature of the test: fluorescence titration. The conditions noted are these: 140 mM KCl, 1 mM MgCl2; 10 mM NaH2PO4 pH 7.2, 0.05% Tween-20, room temperature.

By KD is commonly meant the concentration at which binding is half-saturated. Read a low KD as higher affinity.

Compound `CC1=N/C(=C\c2cc(F)c(O)c(F)c2)C(=O)N1C` showed a KD of 420 ± 40 nM.
